The results in this text go back to patent publication US7858644B2, “EP4 receptor antagonists” (Asterand UK Limited, priority 2003, dated 2010).

Test [1] deals with T1, human EP4 receptor (Homo sapiens, UniProt P35408).
T1 construct: expressed in transfected cells
Briefly: Binding ability to human EP4 receptor ([3H]PGE2 displacement). The following applies: read-out: pKi EP4 (converted). How it is done:
(§1) Membranes were prepared from cells stably transfected with human EP receptor cDNA. In brief, cells were cultured to confluency, scraped from culture flasks, and centrifuged (800 g, 8 minutes, 4° C.). Cells were twice washed in ice cold homogenisation buffer containing 10 mMTris-HCl, 1 mM EDTA. 2Na, 250 mM sucrose, 1 mM PMSF, 0.3 mM indomethacin, pH 7.4, homogenised and re-centrifuged as before. The supernatant was stored on ice and pellets re-homogenised and re-spun. Supernatants were pooled and centrifuged at 40000 g, 10 minutes, 4° C. Resultant membrane pellets were stored at −80° C. until use.
(§2) Incubations were performed at suitable temperatures and for suitable times to allow equilibrium to be reached. Non-specific binding was determined in the presence of 10 uM PGE2. Bound and free radiolabel was separated by vacuum manifold filtration using appropriate wash buffers, and bound radiolabel was determined by scintillation counting. Constituents of each of the buffers are included in table 1 below.
(§3) This approach follows that set out in Kenakin, T. P., Pharmacologic analysis of drug receptor interaction. Raven Press, New York, 2nd edition.

The target of test [2] is T2, human EP3 receptor (Homo sapiens, UniProt P43115).
T2 construct: expressed in transfected cells
T2 sequence (P43115 1-390): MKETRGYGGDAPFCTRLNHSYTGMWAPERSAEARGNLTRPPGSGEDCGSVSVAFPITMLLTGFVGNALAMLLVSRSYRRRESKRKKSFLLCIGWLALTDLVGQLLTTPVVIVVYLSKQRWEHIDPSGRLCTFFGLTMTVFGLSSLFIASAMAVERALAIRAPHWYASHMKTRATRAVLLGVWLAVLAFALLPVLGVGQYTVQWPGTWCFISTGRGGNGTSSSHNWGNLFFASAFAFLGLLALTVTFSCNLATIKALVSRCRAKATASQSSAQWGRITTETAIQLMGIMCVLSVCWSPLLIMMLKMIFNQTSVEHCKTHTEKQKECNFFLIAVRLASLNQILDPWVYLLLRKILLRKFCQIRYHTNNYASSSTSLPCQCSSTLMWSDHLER
Briefly: Binding ability to human EP3 receptor ([3H]PGE2 displacement). The following applies: membranes from cells stably transfected with human EP receptor cDNA; [3H]PGE2 2.5 nM; Cheng-Prusoff from IC50; read-out: pKi EP3 (converted). The procedure:
as §1
as §2, with “For assay, membranes expressing human EP4, EP3, EP2 or EP1 receptors were incubated in Millipore (MHVBN45) plates containing assay buffer, radiolabelled [^3H]PGE2 and 0.1 to 10 000 nM concentrations of compounds. Incubations” for “Incubations”
as §3

For test [3], the target named is T3, human EP2 receptor (Homo sapiens, UniProt P43116).
T3 construct: expressed in transfected cells
Briefly: Binding ability to human EP2 receptor ([3H]PGE2 displacement). The following applies: read-out: pKi EP2 (converted). How it is done: as §1
as §2, with “For assay, membranes expressing human EP4, EP3, EP2 or EP1 receptors were incubated in Millipore (MHVBN45) plates containing assay buffer, radiolabelled [^3H]PGE2 and 0.1 to 10 000 nM concentrations of compounds. Incubations” for “Incubations”
as §3

Some results are limits rather than exact numbers.

T1 sequence (P35408 whole entry): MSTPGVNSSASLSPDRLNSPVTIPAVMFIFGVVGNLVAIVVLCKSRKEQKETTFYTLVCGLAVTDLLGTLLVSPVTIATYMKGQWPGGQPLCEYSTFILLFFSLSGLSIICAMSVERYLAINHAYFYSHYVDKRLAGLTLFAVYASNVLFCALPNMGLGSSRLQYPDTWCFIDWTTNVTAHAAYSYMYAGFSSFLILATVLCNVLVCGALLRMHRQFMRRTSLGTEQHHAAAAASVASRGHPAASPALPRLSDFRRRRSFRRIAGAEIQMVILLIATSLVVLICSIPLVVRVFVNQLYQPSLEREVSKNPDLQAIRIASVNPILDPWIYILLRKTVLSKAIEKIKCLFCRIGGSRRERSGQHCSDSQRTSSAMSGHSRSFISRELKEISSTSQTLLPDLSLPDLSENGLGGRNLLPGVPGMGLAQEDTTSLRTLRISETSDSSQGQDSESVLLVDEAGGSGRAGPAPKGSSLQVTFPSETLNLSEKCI
T3 sequence (P43116 whole entry): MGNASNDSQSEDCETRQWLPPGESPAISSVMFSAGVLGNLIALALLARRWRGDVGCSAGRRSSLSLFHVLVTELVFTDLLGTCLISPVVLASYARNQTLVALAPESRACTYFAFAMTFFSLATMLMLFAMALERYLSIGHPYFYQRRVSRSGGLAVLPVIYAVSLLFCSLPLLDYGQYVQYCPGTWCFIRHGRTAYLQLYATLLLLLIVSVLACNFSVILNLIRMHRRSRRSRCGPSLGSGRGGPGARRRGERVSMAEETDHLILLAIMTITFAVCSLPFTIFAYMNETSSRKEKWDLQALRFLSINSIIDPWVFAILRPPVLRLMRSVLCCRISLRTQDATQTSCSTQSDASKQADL

With `Cc1oc(C(=O)NS(=O)(=O)c2ccccc2)cc1CNc1ccc(-c2ccc(OC(F)F)cc2)cc1` [Compound 172, N-{4-[(4′-Difluoromethoxy-biphenyl-4-ylamino)-methyl]-5-methyl-furan-2-carbonyl}-benzenesulphonamide], the Ki in test [1] is under 10 nM; in test [2] it was over 10 µM; in test [3] it was over 10 µM.
`Cc1oc(C(=O)O)cc1COc1ccc(-c2cccc(O)c2)cc1` [Compound 112, 4-(3′-Hydroxy-biphenyl-4-yloxymethyl)-5-methyl-furan-2-carboxylic acid]: the Ki was under 3160 nM in test [1], over 10 µM in test [2] and over 10 µM in test [3].
For `Cc1ccccc1S(=O)(=O)NC(=O)c1cc(CN(C)c2ccc(-c3ccc(OC(F)F)cc3)cc2)c(C)o1` [Compound 177, N-(4-{[(4′-Difluoromethoxy-biphenyl-4-yl)-methyl-amino]-methyl}-5-methyl-furan-2-carbonyl)-2-methyl-benzenesulfonamide], the values for the Ki in test [1], in test [2] and in test [3] were under 31.6 nM, over 10 µM and over 10 µM, respectively.
For `Cc1oc(C(=O)O)cc1CNc1ccc(-c2ccccc2)cc1` [Compound 160, 4-(Biphenyl-4-ylaminomethyl)-5-methyl-furan-2-carboxylic acid], the Ki in test [1] was under 3160 nM; in test [2], over 10 µM; in test [3], over 10 µM.
In the case of `COc1ccc(-c2ccc(OCCc3cc(C(=O)O)oc3C)cc2)cc1` [Compound 73, 4-[2-(4′-Methoxy-biphenyl-4-yloxy)-ethyl]-5-methyl-furan-2-carboxylic acid], the Ki is under 3160 nM in test [1], over 10 µM in test [2] and over 10 µM in test [3].
Regarding `Cc1oc(CCC(=O)NS(=O)(=O)c2ccccc2)cc1COc1ccc(-c2ccccc2)cc1` [Compound 38, N-{3-[4-(Biphenyl-4-yloxymethyl)-5-methyl-furan-2-yl]-propionyl}-benzene sulfonamide], the Ki in test [1] is under 1000 nM; in test [2], over 10 µM; in test [3], over 3.16 µM.
On to `CC(=O)c1cccc(-c2ccc(OCc3cc(C(=O)O)oc3C)cc2)c1` [Compound 117, 4-(3′-Acetyl-biphenyl-4-yloxymethyl)-5-methyl-furan-2-carboxylic acid], for which the Ki in test [1] is under 3160 nM; in test [2], over 10 µM; in test [3] it was over 10 µM.
`Cc1oc(S(=O)(=O)NC(=O)c2cccs2)cc1COc1ccc(-c2ccccc2)cc1` [Compound 64, 4-(Biphenyl-4-yloxymethyl)-5-methyl-furan-2-sulphonic acid (thiophene-2-carbonyl)-amide]: the values for the Ki in test [1], in test [2] and in test [3] were under 100 nM, over 10 µM and over 10 µM, respectively.
In the case of `Cc1oc(S(=O)(=O)NC(=O)c2cccnc2)cc1COc1ccc(-c2ccccc2)cc1` [Compound 68, 4-(Biphenyl-4-yloxymethyl)-5-methyl-furan-2-sulphonic acid (pyridine-3-carbonyl)-amide], the values for the Ki in test [1], in test [2] and in test [3] were under 1000 nM, over 10 µM and over 10 µM, respectively.
For the compound `O=C(O)c1cc(COc2ccc3c(c2)oc2ccccc23)c(C(F)(F)F)o1` [Compound 95, 4-(Dibenzofuran-3-yloxymethyl)-5-trifluoromethyl-furan-2-carboxylic acid], the Ki in test [1] is under 3160 nM; in test [2] it was over 10 µM; in test [3], over 3.16 µM.
On the same counts, the results for `O=C(O)c1cc(COc2ccc3oc4ccccc4c3c2)co1` [Compound 78, 4-(Dibenzofuran-2-yloxymethyl)-furan-2-carboxylic acid] are under 10000 nM, over 10 µM and over 3.16 µM.
The corresponding values for `Cc1oc(C(=O)O)cc1CNc1ccc(-c2ccc(OC(F)F)cc2)cc1` [Compound 171, 4-(4′-Difluoromethoxy-biphenyl-4-ylaminomethyl)-5-methyl-furan-2-carboxylic acid] are under 316 nM, over 10 µM and over 10 µM.
On the same counts, the results for `O=C(O)c1cc(COc2cccc(-c3ccccc3)c2)c(C(F)(F)F)o1` [Compound 91, 4-(Biphenyl-3-yloxymethyl)-5-trifluoromethyl-furan-2-carboxylic acid] are under 3160 nM, over 10 µM and over 10 µM.
For the compound `COc1ccc(-c2ccc(OCc3cc(C(=O)O)oc3C)cc2)c(C)c1` [Compound 144, 4-(4′-Methoxy-2′-methyl-biphenyl-4-yloxymethyl)-5-methyl-furan-2-carboxylic acid], the Ki in test [1] is under 1000 nM; in test [2] it was over 10 µM; in test [3], over 10 µM.
Consider `COc1ccc(-c2ccc(OCc3cc(C(=O)NS(=O)(=O)c4ccccc4)oc3C)cc2)c(OC)c1` [Compound 141, N-[4-(2′,4′-Dimethoxy-biphenyl-4-yloxymethyl)-5-methyl-furan-2-carbonyl]-benzenesulphonamide], for which the Ki was under 316 nM in test [1], over 10 µM in test [2] and over 10 µM in test [3].
For the compound `Cc1oc(C(=O)O)cc1COc1cccc(-c2cccc(C(F)(F)F)c2)c1` [Compound 109, 5-Methyl-4-(3′-trifluoromethyl-biphenyl-3-yloxymethyl)-furan-2-carboxylic acid], the Ki is under 3160 nM in test [1], over 10 µM in test [2] and over 10 µM in test [3].
On to `CSc1ccc(-c2ccc(OCc3cc(C(=O)O)oc3C)cc2)cc1` [Compound 111, 5-Methyl-4-(4′-methylsulphanyl-biphenyl-4-yloxymethyl)-furan-2-carboxylic acid], for which the Ki was under 3160 nM in test [1], over 10 µM in test [2] and over 10 µM in test [3].
Regarding `Cc1oc(/C=C/C(=O)O)cc1COc1ccc(-c2ccccc2)cc1` [Compound 42, 3-[4-(Biphenyl-4-yloxymethyl)-5-methyl-furan-2-yl]-acrylic acid], the Ki was under 100 nM in test [1], over 10 µM in test [2] and over 10 µM in test [3].
With `Cc1oc(C(=O)O)cc1CSc1ccc(-c2ccc(OC(F)F)cc2)cc1` [Compound 153, 4-(4′-Difluoromethoxy-biphenyl-4-ylsulphanylmethyl)-5-methyl-furan-2-carboxylic acid], the figures for the Ki in test [1], in test [2] and in test [3] were under 1000 nM, over 10 µM and over 10 µM, respectively.
For `COc1ccc(-c2ccc(NCc3cc(C(=O)NS(=O)(=O)c4ccccc4C)oc3C)cc2)nc1` [Compound 167, N-(4-{[4-(5-Methoxy-pyridin-2-yl)-phenylamino]-methyl}-5-methyl-furan-2-carbonyl)-2-methyl-benzenesulphonamide], the Ki was under 316 nM in test [1], over 10 µM in test [2] and over 10 µM in test [3].
As to `Cc1noc(C)c1C(=O)NS(=O)(=O)c1cc(COc2ccc(-c3ccccc3)cc2)c(C)o1` [Compound 63, 4-(Biphenyl-4-yloxymethyl)-5-methyl-furan-2-sulphonic acid (3,5-dimethyl-isoxazole-4-carbonyl)-amide], the Ki is under 316 nM in test [1], over 10 µM in test [2] and over 10 µM in test [3].
With `CCOc1ccc(-c2ccc(OCc3cc(C(=O)O)oc3C)cc2)cc1` [Compound 98, 4-(4′-Ethoxy-biphenyl-4-yloxymethyl)-5-methyl-furan-2-carboxylic acid], the Ki is under 316 nM in test [1], over 10 µM in test [2] and over 10 µM in test [3].
Take `Cc1oc(C(=O)O)cc1CCOc1ccc2c(c1)oc1ccccc12` [Compound 74, 4-[2-(Dibenzofuran-3-yloxy)-ethyl]-5-methyl-furan-2-carboxylic acid]: the Ki in test [1] is under 3160 nM; in test [2], over 10 µM; in test [3], over 10 µM.
For `COc1ccc(-c2ccc(OCc3cc(CCC(=O)O)oc3C)cc2)cc1` [Compound 39, 3-[4-(4′-Methoxy-biphenyl-4-yloxymethyl)-5-methyl-furan-2-yl]-propionic acid], the Ki is under 100 nM in test [1], over 10 µM in test [2] and over 10 µM in test [3].
Consider `CC(C)c1oc(C(=O)O)cc1COc1ccc2c(c1)oc1ccccc12` [Compound 87, 4-(Dibenzofuran-3-yloxymethyl)-5-isopropyl-furan-2-carboxylic acid], for which the Ki is under 3160 nM in test [1], over 10 µM in test [2] and over 10 µM in test [3].
